{"source": "ChEMBL document CHEMBL4028815", "about": "“Novel phosphonate analogs of sulforaphane: Synthesis, in vitro and in vivo anticancer activity” (Eur J Med Chem, 2017)", "key": {"[1]": {"test": "Cytotoxicity against human LoVo/DX cells assessed as cell death at >15 uM after 24 hrs", "type": "cell-based"}, "LoVo [2]": {"test_system": "LoVo", "test": "Potency index, ratio of benzyl isothiocyanate IC50 to compound IC50 for human LoVo cells", "type": "functional"}, "HL-60": {"test_system": "HL-60", "test": "Cytotoxicity against human HL60 cells after 72 hrs by sulforhodamine B assay", "type": "functional, cell-based", "conditions": "HL-60, 72 h"}, "HL60/MX2": {"test_system": "HL60/MX2", "test": "Cytotoxicity against human HL60/MX2 cells after 72 hrs by sulforhodamine B assay", "type": "functional, cell-based", "conditions": "HL60/MX2, 72 h"}, "[3]": {"test": "Resistance index, ratio of IC50 for human HL60/MX2 cells to IC50 for human HL60 cells", "type": "functional"}, "LoVo [4]": {"test_system": "LoVo", "test": "Cytotoxicity against human LoVo cells after 72 hrs by sulforhodamine B assay", "type": "functional, cell-based"}, "[5]": {"test": "Cytotoxicity against human LoVo/DX cells after 72 hrs by sulforhodamine B assay", "type": "functional, cell-based"}, "BALB/3T3": {"test_system": "BALB/3T3", "test": "Cytotoxicity against mouse BALB/3T3 cells after 72 hrs by sulforhodamine B assay", "type": "cell-based", "conditions": "BALB/3T3, 72 h"}, "A549": {"test_system": "A549", "test": "Cytotoxicity against human A549 cells after 72 hrs by sulforhodamine B assay", "type": "functional, cell-based", "conditions": "A549, 72 h"}, "4T1 [6]": {"test_system": "4T1", "test": "Cytotoxicity against mouse 4T1 cells after 72 hrs by sulforhodamine B assay", "type": "functional, cell-based", "conditions": "4T1, 72 h"}, "MES-SA": {"test_system": "MES-SA", "test": "Cytotoxicity against human MESSA cells after 72 hrs by sulforhodamine B assay", "type": "functional, cell-based"}, "MES-SA/Dx5": {"test_system": "MES-SA/Dx5", "test": "Cytotoxicity against human MESSA/DX5 cells after 72 hrs by sulforhodamine B assay", "type": "functional, cell-based", "conditions": "MES-SA/Dx5, 72 h"}, "LoVo/DX [7]": {"test_system": "LoVo/DX", "test": "Cell cycle arrest in human LoVo/DX cells assessed as accumulation at G2/M phase at 15 uM after 24 hrs by propidium iodide staining based flow cytometric method", "type": "functional"}, "LoVo/DX [8]": {"test_system": "LoVo/DX", "test": "Cell cycle arrest in human LoVo/DX cells assessed as decrease in accumulation at G0/G1 phase at 15 uM after 24 hrs by propidium iodide staining based flow cytometric method", "type": "functional"}, "LoVo [9]": {"test_system": "LoVo", "test": "Cell cycle arrest in human LoVo cells assessed as accumulation at G2/M phase at 15 uM after 24 hrs by propidium iodide staining based flow cytometric method", "type": "functional"}, "[10]": {"test": "Induction of apoptosis in human LoVo/DX cells assessed as increase in caspase3/7 activity at 15 uM using Ac-DEVD-ACC as substrate pretreated for 24 hrs followed by substrate addition measured for 2 hrs by fluorescence assay relative to control", "type": "functional"}, "LoVo [11]": {"test_system": "LoVo", "test": "Induction of apoptosis in human LoVo cells assessed as increase in caspase3/7 activity at 15 uM using Ac-DEVD-ACC as substrate pretreated for 24 hrs followed by substrate addition measured for 2 hrs by fluorescence assay relative to control", "type": "functional"}, "LoVo/DX [12]": {"test_system": "LoVo/DX", "test": "Induction of apoptosis in human LoVo/DX cells assessed as increase in caspase3/7 activity at >15 uM using Ac-DEVD-ACC as substrate pretreated for 24 hrs followed by substrate addition measured for 2 hrs by fluorescence assay", "type": "functional, cell-based"}, "LoVo [13]": {"test_system": "LoVo", "test": "Induction of apoptosis in human LoVo cells assessed as increase in caspase3/7 activity at >15 uM using Ac-DEVD-ACC as substrate pretreated for 24 hrs followed by substrate addition measured for 2 hrs by fluorescence assay", "type": "functional, cell-based"}, "LoVo [14]": {"test_system": "LoVo", "test": "Induction of apoptosis in human LoVo cells assessed as loss of mitochondrial membrane potential at 15 uM after 24 hrs by JC-1 staining based flow cytometric method relative to control", "type": "functional"}, "[15]": {"test": "Induction of apoptosis in human LoVo/DX cells assessed as loss of mitochondrial membrane potential at 15 uM after 24 hrs by JC-1 staining based flow cytometric method relative to control", "type": "functional"}, "LoVo [16]": {"test_system": "LoVo", "test": "Induction of apoptosis in human LoVo cells assessed as late apoptotic cells at 15 uM after 24 hrs by APC-Annexin-V/propidium iodide staining based flow cytometric method relative to control", "type": "functional"}, "[17]": {"test": "Induction of apoptosis in human LoVo/DX cells assessed as late apoptotic cells at 15 uM after 24 hrs by APC-Annexin-V/propidium iodide staining based flow cytometric method relative to control", "type": "functional"}, "LoVo [18]": {"test_system": "LoVo", "test": "Induction of apoptosis in human LoVo cells assessed as necrotic cells at 15 uM after 24 hrs by APC-Annexin-V/propidium iodide staining based flow cytometric method (reference value: 10%)", "type": "functional"}, "4T1 [19]": {"test_system": "4T1", "test": "Anti-tumor activity against mouse 4T1 cells implanted in BALB/c mdb mouse assessed as tumor growth inhibition at 100 umol/kg, ip administered five times weekly measured on day 15 post cell innoculum relative to control", "type": "functional", "conditions": "4T1, ip, 360 h, read-out: TGI"}, "4T1 [20]": {"test_system": "4T1", "test": "Anti-tumor activity against mouse 4T1 cells implanted in BALB/c mdb mouse assessed as tumor growth inhibition at 100 umol/kg, ip administered five times weekly measured on day 29 post cell innoculum relative to control", "type": "functional", "conditions": "4T1, ip, 696 h, read-out: TGI"}, "Mus musculus [21]": {"test_system": "Mus musculus", "test": "Toxicity in BALB/c mdb mouse implanted with mouse 4T1 cells assessed as body weight loss at 100 umol/kg, ip administered five times weekly measured 3 times weekly during compound dosing", "type": "organism-based", "conditions": "in vivo"}, "Mus musculus [22]": {"test_system": "Mus musculus", "test": "Nephrotoxicity in BALB/c mdb mouse implanted with mouse 4T1 cells assessed as kidney weight at 100 umol/kg, ip administered five times weekly measured at 29 day post cell innoculum (reference value: 0.136 +/- 0.006 g)", "type": "toxicity, organism-based", "conditions": "in vivo, 696 h"}, "Mus musculus [23]": {"test_system": "Mus musculus", "test": "Toxicity in BALB/c mdb mouse implanted with mouse 4T1 cells assessed as spleen weight at 100 umol/kg, ip administered five times weekly measured at 29 day post cell innoculum (reference value: 0.603 +/- 0.133 g)", "type": "organism-based", "conditions": "in vivo, 696 h"}, "Mus musculus [24]": {"test_system": "Mus musculus", "test": "Toxicity in BALB/c mdb mouse implanted with mouse 4T1 cells assessed as WBC level at 100 umol/kg, ip administered five times weekly measured at 29 day post cell innoculum (reference value: 212.3 +/- 82.8 10^3/uL)", "type": "organism-based", "conditions": "in vivo, 696 h"}, "Mus musculus [25]": {"test_system": "Mus musculus", "test": "Toxicity in BALB/c mdb mouse implanted with mouse 4T1 cells assessed as RBC level at 100 umol/kg, ip administered five times weekly measured at 29 day post cell innoculum (reference value: 8.6 +/- 0.9 10^6/uL)", "type": "organism-based", "conditions": "in vivo, 696 h"}, "Mus musculus [26]": {"test_system": "Mus musculus", "test": "Toxicity in BALB/c mdb mouse implanted with mouse 4T1 cells assessed as hemoglobin level at 100 umol/kg, ip administered five times weekly measured at 29 day post cell innoculum (reference value: 15.1 +/- 1.5 g/dl)", "type": "organism-based", "conditions": "in vivo, 696 h"}, "Mus musculus [27]": {"test_system": "Mus musculus", "test": "Toxicity in BALB/c mdb mouse implanted with mouse 4T1 cells assessed as hematocrit at 100 umol/kg, ip administered five times weekly measured at 29 day post cell innoculum (reference value: 39.9 +/- 3.7 %)", "type": "organism-based", "conditions": "in vivo, 696 h"}, "Mus musculus [28]": {"test_system": "Mus musculus", "test": "Toxicity in BALB/c mdb mouse implanted with mouse 4T1 cells assessed as serum AST level at 100 umol/kg, ip administered five times weekly measured at 29 day post cell innoculum (reference value: 136 +/- 10.3 U/L)", "type": "organism-based", "conditions": "in vivo, 696 h"}, "Mus musculus [29]": {"test_system": "Mus musculus", "test": "Toxicity in BALB/c mdb mouse implanted with mouse 4T1 cells assessed as serum creatinine level at 100 umol/kg, ip administered five times weekly measured at 29 day post cell innoculum (reference value: 9.3 +/- 1.2 umol/L)", "type": "organism-based", "conditions": "in vivo, 696 h"}, "LoVo [30]": {"test_system": "LoVo", "test": "Cytotoxicity against human LoVo cells assessed as cell death at >15 uM after 24 hrs", "type": "cell-based"}}, "note": "The source made the active and inactive calls. The calls are words filed in the database; no cut-off is given here.", "data": [{"smiles": "O=P(CCCCCCN=C=S)(Oc1ccccc1)Oc1ccccc1", "values": [{"measurement": "Activity", "setting": "[1]", "result": "Toxic"}, {"measurement": "Ratio IC50", "setting": "LoVo [2]", "result": 5}, {"measurement": "IC50", "setting": "HL-60", "result": 0.8, "unit": "µM"}, {"measurement": "IC50", "setting": "HL60/MX2", "result": 3.3, "unit": "µM"}, {"measurement": "Ratio IC50", "setting": "[3]", "result": 4.3}, {"measurement": "IC50", "setting": "LoVo [4]", "result": 2.9, "unit": "µM"}, {"measurement": "IC50", "setting": "[5]", "result": 11.2, "unit": "µM"}, {"measurement": "IC50", "setting": "BALB/3T3", "result": 11.5, "unit": "µM"}, {"measurement": "IC50", "setting": "A549", "result": 11.1, "unit": "µM"}, {"measurement": "IC50", "setting": "4T1 [6]", "result": 2.9, "unit": "µM"}, {"measurement": "IC50", "setting": "MES-SA", "result": 10.6, "unit": "µM"}, {"measurement": "IC50", "setting": "MES-SA/Dx5", "result": 8.3, "unit": "µM"}, {"measurement": "Activity", "setting": "LoVo/DX [7]", "result": "Active"}, {"measurement": "Activity", "setting": "LoVo/DX [8]", "result": "Active"}, {"measurement": "Activity", "setting": "LoVo [9]", "result": "Active"}, {"measurement": "fold change (FC)", "setting": "[10]", "result": 6.8}, {"measurement": "fold change (FC)", "setting": "LoVo [11]", "result": 6.8}, {"measurement": "Activity", "setting": "LoVo/DX [12]", "result": "inactive"}, {"measurement": "Activity", "setting": "LoVo [13]", "result": "inactive"}, {"measurement": "Activity", "setting": "LoVo [14]", "result": 79.3, "unit": "%"}, {"measurement": "Activity", "setting": "[15]", "result": 67, "unit": "%"}, {"measurement": "Activity", "setting": "LoVo [16]", "result": 54.6, "unit": "%"}, {"measurement": "Activity", "setting": "[17]", "result": 59.7, "unit": "%"}, {"measurement": "Activity", "setting": "LoVo [18]", "result": 23.3, "unit": "%"}, {"measurement": "inhibition in vivo at 100 µmol/kg", "setting": "4T1 [19]", "result": 23.1, "unit": "%"}, {"measurement": "inhibition in vivo at 100 µmol/kg", "setting": "4T1 [20]", "result": -6.4, "unit": "%"}, {"measurement": "Activity", "setting": "Mus musculus [21]", "result": "<= 10%"}, {"measurement": "Activity", "setting": "Mus musculus [22]", "result": 0.143, "unit": "g"}, {"measurement": "Activity", "setting": "Mus musculus [23]", "result": 0.632, "unit": "g"}, {"measurement": "Activity", "setting": "Mus musculus [24]", "result": 375.9, "unit": "×10³ /uL"}, {"measurement": "Activity", "setting": "Mus musculus [25]", "result": 11.6, "unit": "×10⁶ /uL"}, {"measurement": "Activity", "setting": "Mus musculus [26]", "result": 20.8, "unit": "g/dL"}, {"measurement": "Activity", "setting": "Mus musculus [27]", "result": 57.6, "unit": "%"}, {"measurement": "Activity", "setting": "Mus musculus [28]", "result": 153, "unit": "U/L"}, {"measurement": "Activity", "setting": "Mus musculus [29]", "result": 8.4, "unit": "µmol/L"}, {"measurement": "Activity", "setting": "LoVo [30]", "result": "Toxic"}]}]}
